Key:
[1] = test system: H295R cells; assay: Androgen producing gene expression in H295R cells (qPCR); format: cell-based, human; settings: 24 hours
Description: (§1) H295R cells are subcultured in T75 flasks for 24 hours. Cells are then treated for 24 hours with serum free basal media as a control or doxercalciferol at 1 nM, 10 nM, or 100 nM diluted in basal media (serum-free) at a 1:1 ratio. After the incubation period, cells are imaged and analyzed for morphology and cell count. Cells are then collected for analysis of steroidogenesis-related gene expression. Cell culture media are collected and used for testosterone quantification using ELISA based Testosterone Parameter Assay Kit (R&D system) per the manufacturer's protocol. The testosterone level is quantified using a multimode microplate reader system, Varioskan LUX Multimode Microplate Reader (Thermo Fisher).
RNA is extracted from H295R cells treated with doxercalciferol. RNA extraction is done using TRIzol (Invitrogen, USA) according to the manufacturer's instructions. The concentration and purity of the extracted RNA are checked using a NanoDrop spectrometer (Thermo Scientific, MA, USA). For qPCR of steroidogenesis related genes in H295R cells 1 μg of total RNA is reverse transcribed using RNA to cDNA EcoDry™ Premix (Double Primed) (Takara Bio USA Inc., CA, USA). The reaction mixture is incubated for 1 hour at 42° C.; incubation is stopped at 70° C. for 10 min. qPCR is performed using the CFX96 PCR instrument and SYBR Green Supermix (Bio-Rad, Hercules, CA, USA) with specific primers (RT^2 Profiler PCR Array for Human Adipogenesis, PAHS-049ZA, QIAGEN) to the target genes in a 20 μL final reaction volume. The delta-delta threshold cycle (ΔΔCt) method is used to calculate the fold change expression in mRNA level in the samples.

[2] = test system: H295R cells; assay: Testosterone production in H295R cell conditioned media (ELISA); format: cell-based, human; settings: 24 hours
Description: as §1

[3] = test system: patient derived xenograft (PDX) mouse model of uterine fibroids (UF); assay: Differentially expressed gene (DEG) analysis by RNA sequencing in PDX UFs; format: in vivo, NOD/SCID mice; settings: UFs treated with doxercalciferol compared to control
Description: After xenograft mice undergo intraperitoneal injection of doxercalciferol (300 ng/kg, 3 times per week) or saline for 6 weeks. Body weight is monitored weekly during doxercalciferol treatment. Six weeks after doxercalciferol treatment insulin resistance is assessed using GTT and then mice are anesthetized and blood is collected to measure liver enzyme and AMH levels, ovary tissue is removed for histological analysis, total RNA is extracted for sequencing, and tumor size is measured with a digital caliper.
Total RNA is extracted from PDX mice after doxercalciferol treatment. EdgeR is used to identify DEGs with p-values of (p)<0.01). GO and KEGG enrichment analysis are performed to determine the implication of the DEGs at the biologically functional level.

[4] = test system: SW872 cells; assay: SW872 immortalized adipocyte model, cell morphology and cell number after 24 h treatment; format: cell-based, human; settings: 100 nM
Description: Human liposarcoma SW872 are used as an in vitro cell culture model of adipocytes to assess adipocyte proliferation. SW872 cells are purchased from (ATCC). These cells are isolated from a surgical specimen of a […] removed from a donor. The cells are cultured per the recommended guidelines. The cells are subcultured at a ratio of 1:4, resulting in a cell density of approximately 1×10^6 in T75 flasks. SW872 cells are subcultured in T75 flasks for 24 hours. Cells are then treated for 24 hours with serum free basal media as a control or doxercalciferol at 1 nM, 10 nM, or 100 nM diluted in basal media (serum-free). After the incubation period, cells are imaged and analyzed for morphology and cell count. Cells are then collected for analysis of adipogenesis-related gene expression and cell culture media are collected for analysis of obesity related cytokines.

[5] = test system: SW872 cells; assay: Adipogenesis gene expression in SW872 cells (qRT-PCR array); format: cell-based, human; settings: 10 nM, 24 hours
Description: SW872 cells are subcultured in T75 flasks for 24 hours. Cells are then treated for 24 hours with serum free basal media as a control or doxercalciferol at 1 nM, 10 nM, or 100 nM diluted in basal media (serum-free). After the incubation period, cells are imaged and analyzed for morphology and cell count. Cells are then collected for analysis of adipogenesis-related gene expression and cell culture media are collected for analysis of obesity related cytokines. RNA is extracted from SW872 cells treated with doxercalciferol. RNA extraction is done using TRIzol (Invitrogen, USA) according to the manufacturer's instructions. The concentration and purity of the extracted RNA is checked using a NanoDrop spectrometer (Thermo Scientific, MA, USA). Quantitative real-time PCR (qPCR) of adipogenesis related genes in SW872 cells is performed using a RT^2 Profiler™ PCR Array Human Apidogenesis according to the manufacturer's instructions (Qiagen, Sciences Inc., MD, USA).

[6] = test system: SW872 cells; assay: Obesity related cytokine antibody array of SW872 secretomes; format: cell-based, human; settings: SW872 secretome, 10 nM, 24 hours
Description: SW872 cells are subcultured in T75 flasks for 24 hours. Cells are then treated for 24 hours with serum free basal media as a control or doxercalciferol at 1 nM, 10 nM, or 100 nM diluted in basal media (serum-free). After the incubation period, cells are imaged and analyzed for morphology and cell count. Cells are then collected for analysis of adipogenesis-related gene expression and cell culture media are collected for analysis of obesity related cytokines. Cell culture media are collected from SW872 cells after 24 hours of 10 nM doxercalciferol treatment. The media is analyzed for obesity related cytokines using a membrane-based antibody array (Ray Biotech, GA, USA) per the manufacturer's protocol, and then quantified using a multimode microplate reader system, Varioskan LUX Multimode Microplate Reader (Thermo Fisher).

[7] = test system: letrozole induced polycystic ovary syndrome (PCOS) mouse models; assay: Histology (H&E) of PCOS mouse tissues; format: in vivo, C57BL/6 mice; settings: after five weeks of treatment
Description: […] […] Each of these tissues are fixed in 4% paraformaldehyde for further histological analysis. Ovary, uterus, gonadal white fat, kidney, and liver tissue are collected and fixed in 4% paraformaldehyde. Tissue sections are stained with hematoxylin-eosin (H&E). Histological analyses are performed using Asperio ImageScope (Leica Biosystem, Wetzlar, Germany).

Compound: C=C1/C(=C\C=C2/CCC[C@]3(C)[C@@H]([C@H](C)/C=C/[C@H](C)C(C)C)CC[C@@H]23)C[C@@H](O)C[C@@H]1O [doxercalciferol]
- CYP11A1 gene expression ([1]; 1 nM): not significantly changed
- CYP17A1 gene expression ([1]; 1 nM): significantly increased
- CYP11A1 gene expression ([1]; 10 nM): significantly increased
- CYP17A1 gene expression ([1]; 10 nM): not significantly changed
- CYP11A1 gene expression ([1]; 100 nM): significantly decreased
- CYP17A1 gene expression ([1]; 100 nM): significantly decreased
- Testosterone production ([2]; 1 nM): significantly decreased
- Testosterone production ([2]; 10 nM): not significantly changed
- Testosterone production ([2]; 100 nM): significantly decreased
- ADRA1B fold change (FC) [3]: −1.81
- ARGI fold change (FC) [3]: −1.42
- DUSP1 fold change [FC] [3]: 1.05
- IL24 fold change (FC) [3]: 1.55
- number of DEGs ([3]; RNA sequencing): 410
- number of down-regulated DEGs ([3]; RNA sequencing): 252
- number of up-regulated DEGs ([3]; RNA sequencing): 158
- cell morphology [4]: most cells being dead
- cell number ([4]; vs control): significant reduction in cells
- CEBP relative gene expression [5]: significantly upregulated
- CEBPD relative gene expression [5]: significantly upregulated
- PRDM16 relative gene expression [5]: significantly downregulated
- RXRA relative gene expression [5]: significantly upregulated
- SREBF1 relative gene expression [5]: significantly downregulated
- WNT1 relative gene expression [5]: significantly downregulated
- WNT10B relative gene expression [5]: significantly downregulated
- expression of most adipogenesis genes ([5]; not significant for most genes): downregulated
- CCL5 cytokine production [6]: significantly downregulates
- CCL18 cytokine production [6]: significantly downregulates
- CXCL10 cytokine production [6]: significantly downregulates
- MIF cytokine production [6]: significantly downregulates
- TIMP-2 cytokine production [6]: significantly downregulates
- TNF RII cytokine production [6]: significantly downregulates
- TNF alpha cytokine production [6]: significantly downregulates
- kidney and liver histology ([7]; PCOS mice): no significant evidence of tissue damage or inflammation
- ovary histology (follicles) ([7]; PCOS mice, untreated PCOS mice have numerous cysts): good numbers of follicles
- gonad white fat histology, adipocyte size vs untreated PCOS mice [7]: reduced adipocyte size
- uterus histology, vs untreated PCOS mice [7]: improved uterine epithelial cell organization
